# Experimental data from the OPERA property sets (Mansouri et al. 2018).
row,Structure (SMILES),logP
1,COc1cc(Cc2cnc(N)nc2N)ccc1C(C)(C)O,1.38
2,CC(C)c1ccc(C(O)C(CO)NC(=O)C(Cl)Cl)cc1 (configuration not stated),2.24
3,CC(C)Oc1ccccc1OC(=O)N(C)C,2.06
4,C=CCS(=O)(=O)c1cc(OC)c(OC)c(OC)c1,1.34
5,CSc1ccccc1C1=NCC(=O)Nc2ccc(Cl)cc21,2.99
6,COC12C(COC(N)=O)C3=C(C(=O)C(C)=C(Nc4ccccc4)C3=O)N1CC1NC12 (configuration not stated),1.3
7,O=C1CN=C(c2ccccc2F)c2cc(Cl)c(Cl)cc2N1,3.63
8,Clc1ncnc2sccc12,1.79
9,CC(=O)OCC1=C(C(=O)O)N2C(=O)C(NC(=O)CSc3cc(Cl)ccc3Cl)C2SC1 (configuration not stated),1.66
10,COCN1C(=O)C(O)N=C(c2ccccc2)c2cc(N)ccc21 (configuration not stated),0.75
11,CCC(=O)CC(=O)CC,1.12
12,NS(=O)(=O)c1ccc2c(c1)S(=O)(=O)NC(Cc1ccccc1)N2 (configuration not stated),1.03
13,CC(C)CNCNC(=O)c1ccccc1,1.73
14,O=C(O)c1ccccc1NCCO,1.35
15,COP(=O)(Oc1cc(Cl)c(Br)cc1Cl)c1ccccc1 (configuration not stated),4.58
16,Cc1ccoc1CN(C)C,1.63
17,COc1cc(CC(=O)O)ccc1OCCCC(C)C,3.3
18,[N-]=[N+]=CC(=O)NCC(=O)NCCO,-1.35
19,COc1cc(Cc2cnc(N)nc2N)c(Br)cc1Br,3.17
20,CC1NCCN1CCO (configuration not stated),-1.93
21,Cn1c(C(O)CO)cnc1[N+](=O)[O-] (configuration not stated),-0.89
22,O=C(NC(CO)C(O)c1ccc(Cl)cc1)C(Cl)Cl (configuration not stated),1.64
23,Cc1cc([N+](=O)[O-])c2ccccc2[n+]1[O-],1.25
24,CCN(CC)CCNC(=O)c1cc(Br)ccc1OC,3.2
25,O=NN(CCCl)C(=O)NC1C=CCCC1 (configuration not stated),2.45
26,CCc1ccc2c(c1)N=C(C)NS2(=O)=O,1.25

row,Structure (SMILES),logP
1,CNc1ccc(S(N)(=O)=O)cc1,0.08
2,O=NN1CCC(O)CC1,-0.89
3,Cn1cnc([N+](=O)[O-])c1S(=O)(=O)Oc1ccccc1,1.08
4,COc1cc(-n2nc(C)cc2OC)nc(OC)n1,1.86
5,COc1cc(Cc2cnc(N)nc2N)c(Cl)c(OC)c1,2.13
6,NNc1ncnc2ccccc12,1.67
7,NC(=S)NN=Cc1cccc(O)c1,1.61
8,COCC(O)Cn1c([N+](=O)[O-])cnc1C (configuration not stated),0.04
9,FC(F)(F)c1nc2c(Cl)cc(Cl)cc2[nH]1,3.49
10,CNC(=O)Oc1ccccc1SC,1.51
11,CCCCCCCCCC[n+]1ccc(C)cc1C.[I-],0.54
12,O=C(O)COc1cccc(S(F)(F)(F)(F)F)c1,2.78
13,Cc1ccc(NC(=O)c2ccco2)c(O)c1,2.84
14,CC(C)(C)c1ccc(OC2OC(CO)C(O)C(O)C2O)cc1 (configuration not stated),1.18
15,CCC(=O)N(C)SN(C)C(=O)Oc1cccc2c1OC(C)(C)C2,3.2
16,O=C(CN1CCCCC1)Nc1ccccc1Cl,2.76
17,COc1ccc(Cc2cnc(N)nc2N)cc1OCc1ccccc1,2.44
18,COc1cc(Cc2cnc(N)nc2N)cc(C)c1OC,1.62
19,O=[N+]([O-])c1nccn1C1OC(CO)C(O)C(O)C1O (configuration not stated),-1.4
20,O=C1CCC2CCCCC2C1 (configuration not stated),1.97
21,Cc1cc(=O)n2c(C)cccc2n1,1.05
22,CCCC(=O)NC(=O)NC(=O)CCC,1.4
23,N#CCN(CC#N)N=O,0.04
24,ClC1C(Cl)C(Cl)C(Br)C(Cl)C1Cl (configuration not stated),3.74
25,COc1ccc(C(=O)c2ccncc2)cc1,1.94
26,CNP(=O)(OC)Oc1ccc(SC)cc1 (configuration not stated),1.81

row,Structure (SMILES),logP
1,O=C1CN=C(c2ccccc2[N+](=O)[O-])c2cc([N+](=O)[O-])ccc2N1,1.61
2,CS(=O)(=O)CCn1ccnc1[N+](=O)[O-],-1.3
3,CCCCCCCCCC[n+]1ccc(C)c(C)c1.[I-],0.66
4,CC1(C)SC2C(NC(=O)C(NS(C)(=O)=O)c3ccccc3)C(=O)N2C1C(=O)O (configuration not stated),0.95
5,CN(C)C1=NC(=O)C(=Cc2ccc([N+](=O)[O-])o2)S1,1.14
6,CN(C)N=Nc1ccc(S(N)(=O)=O)cc1,1.06
7,CCCCOCc1c(CO)cnc(C)c1O,1.34
8,CSC(C)=NOC(=O)N(C)SN(C)C(=O)c1ccccc1,2.2
9,CN(C(=O)COc1ccccc1)c1ccccc1,2.25
10,CN(C)CCc1ccsc1,1.94
11,CC1CCN(N=O)CC1,1.05
12,O=C1CCC(=O)N1c1cccc(C(F)(F)F)c1,1.26
13,CN(C)C(=O)Oc1ccc([N+](=O)[O-])cc1,1.5
14,Cc1cccc2c([N+](=O)[O-])cc[n+]([O-])c12,1.59
15,COc1cc(Cc2cnc(N)nc2N)cc(OC)c1C(C)C,3.37
16,[Br-].c1ccc(CC[n+]2ccccc2)cc1,-2.35
17,O=C(O)COc1cc(F)cc(Cl)c1,2.2
18,O=[N+]([O-])c1nccn1CCCOc1ccccc1,2.38
19,Cc1nnc(-c2ccccn2)o1,0.46
20,CCC1=Nc2cc(Cl)ccc2S(=O)(=O)N1,1.61
21,CN(C)N=Nc1cccc(C(=O)O)c1,2.03
22,CCN1C(=O)CN=C(c2ccccc2)c2cc(Cl)ccc21,3.21
23,O=C1CN=C(c2ccc(Br)cc2)c2cc(Br)ccc2N1,4.04
24,CN(C)/N=N/c1[nH]ncc1C(N)=O,-0.12
25,CSC(C)=NOC(=O)N(C)SN(C)C(=O)C1CC1,1.7
26,CCCCCCCCCC[n+]1cc(C)cc(C)c1.[I-],0.76

row,Structure (SMILES),logP
1,O=S(=O)(Nc1cn[nH]c1)c1ccccc1,0.87
2,CN(C)C(=O)c1ccsc1,0.55
3,CNP(=O)(OC)Oc1ccc(Cl)cc1 (configuration not stated),1.85
4,CCOP(=S)(OCC)SCS(=O)CC (configuration not stated),1.78
5,CCN(CC)CCNC(=O)c1cc(Cl)cc(Cl)c1,3.77
6,CC(=O)Nc1ccc(O)c(C)c1,0.79
7,O=C1C=CC(=NO)c2ccccc21,2.27
8,CCCCCCCC[n+]1ccc(C)cc1C.[I-],-0.57
9,COC(=O)c1c(OC)cc(Cc2cnc(N)nc2N)cc1OC,0.95
10,CCCCCCCC1(CC)C(=O)NC(=O)NC1=O,2.91
11,CCN(CC)CCCNC(=O)c1ccccc1,1.56
12,CC(=O)OCC1=C(C(=O)O)N2C(=O)C(NC(=O)C(O)c3ccccc3)C2SC1 (configuration not stated),-0.44
13,CN(C)N=Nc1ccc(NC(N)=O)cc1,1.25
14,Clc1ccc(-c2ccc(Cl)c(Cl)c2Cl)c(Cl)c1,6.61
15,CCOc1cc(Cc2cnc(N)nc2N)cc(OCC)c1C(C)(C)O,2.46
16,CNc1ncnc2sccc12,1.43
17,c1cncc(CCN2CCCCC2)c1,1.66
18,CCC(CC)(C(N)=O)c1ccc2c(c1)OCO2,1.59
19,O=C1CC2OCCC3CN4CCC56c7ccccc7N1C5C2C3CC46 (configuration not stated),1.62
20,CS(=O)(=O)CCCOc1ccc([N+](=O)[O-])cc1,0.93
21,Cc1csc(C=Cc2ccc([N+](=O)[O-])o2)n1,1.53
22,CCCS(=O)(=O)c1cc(OC)c(OC)c(OC)c1,1.56
23,CN(C)c1ncnc2sccc12,1.82
24,CCOC(=O)C(=Cc1ccc(Cl)cc1)C(=O)OCC,3.96
25,CC(=O)Oc1ccc(C=CNC=O)cc1,1.32
26,CNC(=O)Oc1cc(C)cc(C(C)(C)C)c1,3.35

row,Structure (SMILES),logP
1,CSc1ccccc1/N=N/N(C)C,3.13
2,FC(F)(F)COC1C(Cl)C(Cl)C(Cl)C(Cl)C1Cl (configuration not stated),4.15
3,ClC1C(Cl)C(Br)C(Cl)C(Br)C1Cl (configuration not stated),3.98
4,CC1=C(C(=O)O)SCCO1,0.04
5,CCc1cc(NC(C)=O)ccc1O,1.31
6,Cc1ccc(Cl)c(Cl)c1NC1=NCCN1,2.35
7,CCCCNc1ccccc1C(N)=O,2.33
8,CN(C)c1cc(Cc2cnc(N)nc2N)cc(N(C)C)c1,1.6
9,COc1ccccc1C(=O)NCCCN,0.2
10,CC(=O)Nc1cc2c(cc1Cl)S(=O)(=O)NC(C)=N2,0.53
11,CCCN(CC)CC(F)(F)F,2.38
12,O=[N+]([O-])C=Cc1cccc(O)c1,2.07
13,CCOP(=S)(OCC)SCS(=O)C(C)(C)C (configuration not stated),2.21
14,O=NN1CCC(c2ccccc2)CC1,2.59
15,CCN1CCN=C1Nc1ncc([N+](=O)[O-])s1,2.28
16,CSC1=NC(=O)C(=Cc2ccc([N+](=O)[O-])o2)S1,1.41
17,Cc1ccnc2c(O)ccc(C)c12,2.71
18,CC(=O)Oc1ccccc1F,1.76
19,O=[N+]([O-])c1c(Cl)c[n+]([O-])c2ccccc12,1.33
20,CC1CNC(=Nc2ncc([N+](=O)[O-])s2)N1C (configuration not stated),2.02
21,NNC(=O)NN=Cc1ccccc1,0.81
22,CSC(C)=NOC(=O)N(C)SN(C)C(=O)c1ccc(C)cc1,2.5
23,CNC(=O)C(CC(C)C)NC(C)=O (configuration not stated),0.14
24,S=C=Nc1ccc(C=Cc2ccccc2)cc1,5.85
25,Cc1cc(C)cc(OC(=O)CNC(=O)c2ccccc2)c1,3.4
26,O=c1ccnc2ccccn12,0.2

row,Structure (SMILES),logP
1,Cc1cccc2nccc(=O)n12,0.74
2,CC(C)OCC(O)Cn1ccnc1[N+](=O)[O-] (configuration not stated),0.51
3,COc1cc(Cc2cnc(N)nc2N)cc(OC)c1C(=O)CS(C)(=O)=O,-0.31
4,CCOc1c(OC)cc(Cc2cnc(N)nc2N)cc1OC,1.34
5,COC1OCC(O)C(NC(=O)N(C)N=O)C1O (configuration not stated),-1.08
6,COc1ccccc1OC1OC(CO)C(O)C(O)C1O (configuration not stated),-1.04
7,CC1(C)SC2C(NC(=O)Cc3ccc(Cl)cc3Cl)C(=O)N2C1C(=O)O (configuration not stated),3.3
8,CCCCCCc1nnc(N)o1,1.43
9,COC(=O)C(C#N)=NNc1ccc(C(F)(F)F)cc1,3.79
10,CCCCCCCCCCCCCC[n+]1ccc(C)cc1C.[I-],2.47
11,O=C(NC(CO)C(O)c1cccc([N+](=O)[O-])c1)C(Cl)Cl (configuration not stated),1.15
12,N=C(N)NC(=O)Nc1ccc([N+](=O)[O-])c(Cl)c1,1.79
13,Oc1ccnc2c(O)cccc12,0.62
14,CC(C)(Cc1ccccc1)NC(=O)N(CCCl)N=O,3.73
15,O=C(c1ccncc1)c1ccc(O)cc1,1.37
16,NC1CC2CC1c1ccc(C(F)(F)F)cc12 (configuration not stated),2.91
17,COc1ccccc1C(=O)NCCN,0
18,CC(=O)NNC(=O)c1ccccn1,-0.57
19,CCC1(CC)SCC(=O)NC1=O,1.52
20,O=C1CN=C(c2cccc(Br)c2)c2cc(Br)ccc2N1,3.88
21,CCOn1c(=O)[nH]c(C)c(Br)c1=O,0.11
22,CN(C)/N=N/c1ccccc1C(=O)NN,1.28
